In patent US10301308B2, “Azetidine derivatives for tau imaging” (Eli Lilly and Company, priority 2015, dated 2019):

Columns and labels:
[1] = biological target: PHF (tau from Alzheimer's disease donors) (Homo sapiens, UniProt P10636); test: Competition radioligand binding versus [18F]AV-1451 on PHF (Ki determination)
Description: Purified, soluble PHF is isolated from AD brain tissue using a protocol modified from the procedure described by Jicha, et al. (G. A. Jicha, A. O'Donnell, C. Weaver (1999) “Hierarchical phosphorylation of recombinant tau by the paired-helical filament-associated protein kinase is dependent on cyclic AMP-dependent protein kinase” J Neurochem. 72(1):214). Briefly, AD cortex is homogenized using a handheld Kinematica Polytron, followed by high pressure batch—gas expansion using a Parr Cell disruption bomb. Crude homogenate is centrifuged at 28 kg to pellet cell debris. Soluble PHF is isolated from the supernatant by affinity chromatography over an Affigel-10 column on which the tau antibody MCI, which recognizes a pathological conformation of tau, has been immobilized (G. A. Jicha, R. Bowser, I. G. Kazam (1997), “Alz-50 and MC-1, a new monoclonal antibody raised to paired helical filaments, recognize conformational epitopes on recombinant tau” J Neurosci Res. 48(2): 12.)
The IC50 (i.e. the molar concentration of competing ligand which reduces the specific binding of a radioligand by 50%) for the unlabeled compound is determined by competition radioligand binding, in which the binding of [18F]AV-1451 to PHF is competed with unlabeled compound at various concentrations. […]

tau protein = test: Clinical PET imaging of tau protein in the brain (SUVr); format: in vivo, human; conditions: AD subjects vs healthy controls
Method: (§1) Clinical evaluation of 3-(3-[18F]-Fluoroazetidin-1-yl)-8-methylbenzo[4,5]imidazo[1,2-a]pyridine (Compound 8) as a PET radioligand for imaging tau protein deposition in patients with AD or other neurodegenerative disorders is conducted in healthy volunteers. AD patients, or Chronic Traumatic Encephalopathy (CTE) subjects, by completion of one or more PET scans with Compound 8. Dynamic PET imaging is acquired on a Siemens ECAT EXACT HR+ over 150 minutes following Compound 8 or [18F]AV-1451 injection (0-60 and 90-150 minute imaging segments). Compound 8 or [18F]AV-1451 scans are acquired similarly in two imaging sessions. A brain MRI is also obtained. PET and MRI images are aligned and normalized, and ATLAS-based volumes of interest (VOI) are applied to the dynamic PET series. Compound 8 or [18F]AV-1451 are evaluated in terms of kinetic profile as well as target region to cerebellum standardized uptake value ratio (SUVr between 100-120 min) between healthy volunteers and AD or CTE subjects.

[2] = Clinical PET kinetic profile: brain uptake, washout, metabolism; format: in vivo, human; conditions: human subjects, dynamic PET
Method: as §1

[3] = test system: native tau aggregates vs native β-amyloid aggregates in human brain sections; test: Autoradiography selectivity towards tau versus β amyloid in AD human brain tissue; format: binding; conditions: for selectivity ratio for Tau:Aβ: 5 Tau+Aβ+ and 2 Tau-Aβ+ brain specimens; for grey matter to white matter (GM/WM) signal ratio: autoradiography, Tau+Aβ+ brain specimens; for binding sites observed in autoradiography: human brain sections Groups A, B, C
Description: Based on the anti-tau and anti-amyloid immunostaining results of brain sections, three groups of human brain sections are selected for autoradiography experiments to determine the native tau-binding selectivity of 3-(3-[18F]-fluoroazetidin-1-yl)-8-methylbenzo[4,5]imidazo[1,2-a]pyridine. Group A are tau-rich AD brain slices (labeled as Tau+Aβ+), Group B are tau-poor AD brain slices (marked as Tau-Aβ+), and Group C are Tau-Aβ− normal brain slices. […] The human AD brain sections in Group B are #33562, #32656, #33998, #35682, and #33563. The normal human brain sections in group C are #29092 and #32566. Tissue slices from the same donors are used to calculate selectivity for all three compounds for testing according to Assay Example 5. Autoradiography is performed for each of these three groups of brains on adjacent 10 μm sections with the amyloid tracer [18F]W372 to quantify the β-amyloid burden. [18F]W372 is a selective amyloid binding tracer discovered by Siemens and evaluated under IND 105173. Sections are covered with 0.5 ml of 3-(3-[18F]-fluoroazetidin-1-yl)-8-methylbenzo[4,5]imidazo[1,2-a]pyridine (in 2.5:2.5:95 DMSO:EtOH:1×PBS, about 20 μCi/slide) and incubated for 1.5 hrs. Then successive washing cycles (1 min PBS, 2 min 30% EtOH/PBS, 2 min 70% EtOH/PBS, 1 min PBS) are employed to remove any unbound tracer. The sections are air dried, placed on a phosphorimaging plate (Fuji IP plate), and exposed overnight. The IP plate is read using a GE Healthcare Life Sciences Typhoon FLA 7000 Phosphorimager. The signal intensity of the grey matter is measured using Fujifilm Multi Gauge software. After subtracting the background signal (signal in the cortex region of Group C), the signal of individual sections of Group A and B are normalized with corresponding signal from autoradiography of the respective adjacent sections with [18F]W372. The calculations are based on Group B brain sections #32656 and #33998, which have undetectable tau pathology by immunohistochemistry. The normalized signal for 3-(3-[18F]-fluoroazetidin-1-yl)-8-methylbenzo[4,5]imidazo[1,2-a]pyridine in Group B brain sections is the relative signal level of 3-(3-[18F]-fluoroazetidin-1-yl)-8-methylbenzo[4,5]imidazo[1,2-a]pyridine to [F-18]W372 resulting from binding to native β-amyloid aggregates. The binding level of 3-(3-[18F]-fluoroazetidin-1-yl)-8-methylbenzo[4,5]imidazo[1,2-a]pyridine to native tau-aggregates in Group A sections is estimated by subtracting the amount of the total signal attributable to binding to 3-amyloid (calculated by multiplying the total signal from [18F]W372 binding to β-amyloid in the adjacent section by the relative signal of 3-(3-[18F]-fluoroazetidin-1-yl)-8-methylbenzo[4,5]imidazo[1,2-a]pyridine to [18F]W372 determined from the Group B sections). The resulting difference is then divided by the signal attributable to binding to β-amyloid to estimate the selectivity of 3-(3-[18F]-fluoroazetidin-1-yl)-8-methylbenzo[4,5]imidazo[1,2-a]pyridine. […] The selectivity of 3-(3-[18F]-fluoroazetidin-1-yl)-8-methylbenzo[4,5]imidazo[1,2-a]pyridine binding to native tau aggregates vs. binding native β-amyloid aggregates is reflected by the ratio of Group A (Tau+Aβ+) signal to the signal of the brain sections #32656 and #33998.

[4] = Mouse PET/CT time activity curves; format: in vivo, CD-1 wild type mice; conditions: mouse PET/CT time activity curves
Method: Dynamic Micro-Positron Emission Tomography (mPET) images are obtained from CD-1 wild type mice using 3-(3-[18F]-fluoroazetidin-1-yl)-8-methylbenzo[4,5]imidazo[1,2-a]pyridine. Micro-Computed Tomography (mCT) of each subject is used as anatomical reference for image analysis. Biodistribution of the tracer in brain, muscle, bone, liver, and kidney is assessed by generating Time Activity Curves (TAC) using the fused mPET/mCT images. An INVEON multimodality scanner (Siemens, Germany) is used for mPET/mCT. All animal work is performed in accordance with the University of Sciences Institutional Animal Care & Use Committee-approved procedures.
Animals are anesthetized with 3% isoflurane/97% oxygen and are placed on the scanner bed. A short high-resolution CT scan is first performed for anatomical registration, followed by a 120-minute PET scan. During the PET scan a water heating system is placed underneath the bed to help maintain the body temperature. Within 3 minutes after the beginning of the PET acquisition, the [18F]-labeled compound 3-(3-[18F]-fluoroazetidin-1-yl)-8-methylbenzo[4,5]imidazo[1,2-a]pyridine is administered to the animals via tail vein injection (250 uCi in a total volume of 200 uL saline). A PET image is generated for each minute of the acquisition time. Uptake of the tracer is obtained by visually drawing regions of interest based on the fused PET/CT images, and the corresponding activity values are determined using the INVEON Research Workplace software (Siemens, Germany). All values are represented as percent injected dose per gram (% ID/g).
The mouse PET/CT time activity curves of 3-(4-(2-[18F]-fluoroethyl)piperidin-1-yl)-8-methoxybenzo[4,5]imidazo[1,2-a]pyridine (T821) (See FIG. 9) and of 3-(4-[18F]-fluoropiperidin-1-yl)-8-methoxybenzo[4,5]imidazo[1,2-a]pyridine (T798) (See FIG. 10) are obtained as described in Assay Example 7 (T821 and T798 are recited in US2011/0182812). […] Therefore, when imaging with T821 and/or T798, the undesirable non-tau PET signals from the skull bones could interfere with desired tau signals from the brain cortex. Thus, in addition to the lack of selectivity for T821 and T798, these compounds would further represent poor candidates for human brain tau PET tracers because of the interfering radioactivity signal from bone. […] The advantageous properties of Compound 8 are useful to provide enhanced tau PET imaging in humans. This combination of critical properties was not known and could not have been predicted from existing tau imaging compounds.

PHF (tau from Alzheimer's disease donors), sequence (P10636 623-695 limits assumed): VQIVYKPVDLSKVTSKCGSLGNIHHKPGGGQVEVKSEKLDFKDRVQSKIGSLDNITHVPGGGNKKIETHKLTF

| Kd ([1]; value used in the Cheng-Prusoff equation, read-out: Kd, dissociation constant of the radioligand) | peak brain uptake [2] | Ki ([1]; tau obtained from donors with Alzheimer's disease, from IC50 by Cheng-Prusoff) | SMILES | uptake in cortical brain regions, AD subjects compared with healthy controls (tau protein) | selectivity ratio for Tau:Aβ [3] | grey matter to white matter (GM/WM) signal ratio [3] | binding sites observed in autoradiography [3] | bone uptake of radioactivity [4] |
| --- | --- | --- | --- | --- | --- | --- | --- | --- |
| 0.57 nM | ~6 SUV | – | [18F]c1ccc(-c2ccc3c(c2)[nH]c2ccncc23)cn1 [[18F]AV-1451, reference compound] | Higher uptake | – | – | – | – |
| – | – | – | COc1ccc2nc3cc(N4CCC([18F])CC4)ccn3c2c1 [Compound T798, 3-(4-[18F]-fluoropiperidin-1-yl)-8-methoxybenzo[4,5]imidazol[1,2-a]pyridine, reference compound] | – | approximately 8.4±1.7 | approximately 18.0±3.2 | binds to tau, amyloid, and unidentified binding sites in normal human brain | bone uptake of radioactivity increases with time |
| – | – | 0.6 nM | Cc1ccc2nc3cc(N4CC(F)C4)ccn3c2c1 [Compound 4, 3-(3-fluoroazetidin-1-yl)-8-methylbenzo[4,5]imidazo[1,2-a]pyridine] | – | – | – | – | – |
| – | – | – | COc1ccc2nc3cc(N4CCC(CC[18F])CC4)ccn3c2c1 [Compound T821, 3-(4-(2-[18F]-fluoroethyl)piperidin-1-yl)-8-methoxybenzo[4,5]imidazo[1,2-a]pyridine, reference compound] | – | approximately 2.22±0.45 | approximately 11.7±1.2 | binds to tau, amyloid, and unidentified binding sites in normal human brain | bone uptake of radioactivity increases with time |
